By GI50 is commonly meant the concentration that inhibits growth by half.

Molecules are shown by their SMILES. Counter-ions that a name gives are not always drawn. Where only a bound is given, the exact number is not on record here.

The record followed here is patent US11602534B2, “Pyrimidine derivative kinase inhibitors” (HEFEI INSTITUTES OF PHYSICAL SCIENCE, CHINESE ACADEMY OF …, priority 2017, dated 2023).

The subject of assay [1] is Tel-cKit-BaF3. The assay can be described thus: Proliferation of Tel-cKit-BaF3 cells, CCK8 cell viability assay. The following applies: Mus musculus; 72 hours, CCK8; stably expressing cKIT kinase. Format: cell-based, mouse. An excerpt:
(§1) In this example the following cells were used: […] (purchased from ATCC), mouse P210-BaF3 (stably expressing BCR-ABL mutant activated kinase), mouse P210/T315I-BaF3 (stably expressing BCR-ABL/T315I mutant activated kinase), mouse FLT3-ITD-BaF3 (stably expressing FLT3/ITD mutant activated kinase), mouse TEL-FLT3-BaF3 (stably expressing FLT3 kinase), mouse TEL-cKIT-BaF3 (stably expressing cKIT kinase), mouse BaF3-tel/T670I-cKit (stably expressing cKIT/T670I mutant activated kinase), mouse Tel-VEGFR2-BaF3 (stably expressing VEGFR2 kinase), mouse Tel-PDGFRα-BaF3 (stably expressing PDGFRα kinase), mouse Tel-PDGFRβ-BaF3 (stably expressing PDGFRβ kinase), mouse Tel-RET-BaF3 (stably expressing RET kinase). The above cell lines were all constructed by our laboratory according to the following method: the kinase region sequences of human P210, P210/T315I, FLT3/ITD, FLT3, cKIT, cKIT/T670I, VEGFR2, PDGFRα, PDGFRβ, RET were respectively amplified by PCR, and inserted into MSCV-Puro vectors having N-terminal TEL or TPR fragments (Clontech). The vectors were stably transfected into mouse BaF3 cells by means of retrovirus, and the growth factor IL-3 were removed, eventually obtaining cell lines that depend on transferred protein P210, P210/T315I, FLT3/ITD, FLT3, cKIT, cKIT/T670I, VEGFR2, PDGFRα, PDGFRβ, or RET.
(§2) GI50 (unit: μM) was calculated by quantifying the number of living cells based on quantitative measurement of reductive dehydrogenase in living cells with CCK8 cell viability assay kit (Bestbio, China).
For orientation: Formazan colour is commonly taken as a measure of viable cells.

Assay [2] relates to TEL-PDGFRβ-BaF3. The assay can be described thus: Proliferation of TEL-PDGFRβ-BaF3 cells, CCK8 cell viability assay. In kind it is cell-based. To be noted: Mus musculus, 72 hours, stably expressing PDGFRβ kinase.
Text: as §1, §2

In assay [3] the test system is TEL-VEGFR2-BaF3. The assay can be described thus: Proliferation of TEL-VEGFR2-BaF3 cells, CCK8 cell viability assay. To be noted: Mus musculus, 72 hours, stably expressing VEGFR2 kinase. In kind it is cell-based.
Text: as §1, §2

The subject of assay [4] is TEL-PDGFRα-BaF3. The assay can be described thus: Proliferation of TEL-PDGFRα-BaF3 cells, CCK8 cell viability assay. Format: cell-based. To be noted: Mus musculus, 72 hours, stably expressing PDGFRα kinase.
Text: as §1, §2

Assay [5] deals with BaF3. The assay can be described thus: Proliferation of BaF3 cells, CCK8 cell viability assay. The following applies: Mus musculus, 72 hours. In kind it is cell-based.
Text: as §1, §2

For assay [6], the system named is Tel-cKit/T670I-BaF3. The assay can be described thus: Proliferation of Tel-cKit/T670I-BaF3 cells, CCK8 cell viability assay. To be noted: Mus musculus, 72 hours, stably expressing cKIT/T670I. Format: cell-based.
Text: as §1, §2

For assay [7], the system named is Tel-FLT3-BaF3. Put plainly: Proliferation of Tel-FLT3-BaF3 cells, CCK8 cell viability assay. To be noted: Mus musculus, 72 hours, stably expressing FLT3 kinase. Format: cell-based.
Text: as §1, §2

Assay [8] concerns Tel-RET-BaF3. Put plainly: Proliferation of Tel-RET-BaF3 cells, CCK8 cell viability assay. Format: cell-based. The following applies: Mus musculus, 72 hours, stably expressing RET kinase.
Text: as §1, §2

The subject of assay [9] is FLT3-ITD-BaF3. Put plainly: Proliferation of FLT3-ITD-BaF3 cells, CCK8 cell viability assay. To be noted: Mus musculus, 72 hours, stably expressing FLT3/ITD. In kind it is cell-based.
Text: as §1, §2

In assay [10] the test system is P210-BaF3. Put plainly: Proliferation of P210-BaF3 cells, CCK8 cell viability assay. In kind it is cell-based. To be noted: Mus musculus, 72 hours, stably expressing BCR-ABL mutant activated kinase.
Text: as §1, §2

Assay [11] deals with P210/T315I-BaF3. The assay can be described thus: Proliferation of P210/T315I-BaF3 cells, CCK8 cell viability assay. The following applies: Mus musculus, 72 hours, stably expressing BCR-ABL/T315I. In kind it is cell-based.
Text: as §1, §2

`Cc1ccc(NC(=O)Nc2ccc(Oc3cc(NC4CCN(C(=O)OC(C)(C)C)CC4)ncn3)cc2)cc1C(F)(F)F` [Example 99, 4-(6-{4-[3-(4-methyl-3-trifluoromethyl-phenyl)-ureido]-phenoxy}-pyrimidin-4-ylamino)-piperidin-1-tert-butyl Formate]: the GI50 in assay [1] was 340 nM; in assay [2] it was 277 nM; in [3], 202 nM; in [4] it was 14 nM; in [5] it was greater than 10000 nM; in assay [6], 990 nM. In addition, the concentration for 50% growth inhibition (GI50) in [7] worked out at 66 nM; in assay [8], 4600 nM; in assay [9], 17 nM.
On to `Cc1ccc(NC(=O)Nc2ccc(Oc3cc(N4CCN(C(=O)OC(C)(C)C)C[C@H]4C)ncn3)cc2)cc1C(F)(F)F` [Example 100, (R)-3-methyl-4-(6-(4-(3-(4-methyl-3-(trifluoromethyl)phenyl)ureido)phenoxy)pyrimidin-4-yl)piperazin-1-tert-butyl Formate], for which the GI50 in assay [1] turned out to be 1520 nM; in assay [2] it was 342 nM; in assay [3], 1660 nM; in assay [4], 63 nM; in assay [5] it was 9010 nM; in [6], 8080 nM. Also, the GI50 came out at 600 nM in assay [7], 5820 nM in assay [8] and 30 nM in assay [9].
With `Cc1ccc(NC(=O)Nc2ccc(Oc3cc(NC4CCNCC4)ncn3)cc2)cc1C(F)(F)F` [Example 103, 1-(4-methyl-3-trifluoromethyl-phenyl)-3-{4-[6-(piperidin-4-ylamino)-pyrimidin-4-yloxy]-phenyl}-urea], the GI50 in assay [1] was 3220 nM; in assay [2] it was 355 nM; in assay [3], 2890 nM; in [4], 70 nM; in [5] it was greater than 10000 nM; in [6], 9530 nM. In addition, the GI50 was 480 nM in assay [7], greater than 10000 nM in [8] and 190 nM in [9].
For the compound `Cc1ccc(NC(=O)Nc2ccc(Oc3cc(N4CCNCC4C)ncn3)cc2)cc1C(F)(F)F` (stereo not shown) [Example 104, 1-{4-[6-(2-methyl-piperazin-1-yl)-pyrimidin-4-yloxy]-phenyl}-3-(4-methyl-3-trifluoromethyl-phenyl)-urea], the GI50 is 1800 nM in [1]; 173 nM in assay [2]; 2890 nM in assay [3]; 14 nM in assay [4]; 8480 nM in assay [5]; 5130 nM in [6]. In addition, the values for the GI50 in assay [7], in assay [8] and in [9] were 670 nM, 3620 nM and 290 nM, respectively.
As for `Cc1ccc(NC(=O)Nc2ccc(Oc3cc(N4CCNC[C@H]4C)ncn3)cc2)cc1C(F)(F)F` [Example 105, (R)-1-(4-methyl-3-(trifluoromethyl)phenyl)-3-(4-((6-(2-methylpiperazin-1-yl)pyrimidin-4-yl)oxy)phenyl)urea], the GI50 was determined as 990 nM in [1]; 195 nM in assay [2]; 323 nM in [3]; 14 nM in assay [4]; 9670 nM in assay [5]; 2160 nM in assay [6]. In addition, the GI50 in assay [7] was determined as 200 nM; in [8], 2750 nM; in [9], 86 nM.
For the compound `Cc1ccc(NC(=O)Nc2ccc(Oc3cc(N4CCNC[C@@H]4C)ncn3)cc2)cc1C(F)(F)F` [Example 107, (S)-1-(4-methyl-3-(trifluoromethyl)phenyl)-3-(4-((6-(2-methylpiperazin-1-yl)pyrimidin-4-yl)oxy)phenyl)urea], the GI50 was 2850 nM in assay [1]; 117 nM in [2]; 508 nM in assay [3]; 34 nM in [4]; 8120 nM in [5]; 940 nM in assay [6]. Moreover, the values for the GI50 in assay [7], in assay [8] and in assay [9] were 340 nM, 1980 nM and 150 nM, respectively.
As to `CN1CCN(Cc2ccc(NC(=O)Nc3ccc(Oc4cc(NCCN)ncn4)cc3)cc2C(F)(F)F)CC1` [Example 108, 1-{4-[6-(2-amino-ethylamino)-pyrimidin-4-yloxy]-phenyl}-3-[4-(4-methyl-piperazin-1-ylmethyl)-3-trifluoromethyl-phenyl]-urea], the GI50 in assay [1] was 970 nM; in assay [2] it was 324 nM; in [3], 98 nM; in [4] it was 16 nM; in assay [5], greater than 10000 nM; in [6] it was 7820 nM. The GI50 came out at 11 nM in assay [7], 3880 nM in assay [8] and 9 nM in [9].
In the case of `CCN1CCN(Cc2ccc(NC(=O)Nc3ccc(Oc4cc(NCCN)ncn4)cc3)cc2C(F)(F)F)CC1` [Example 109, 1-{4-[6-(2-amino-ethylamino)-pyrimidin-4-yloxy]-phenyl}-3-[4-(4-ethyl-piperazin-1-ylmethyl)-3-trifluoromethyl-phenyl]-urea], the GI50 in assay [1] came out at 999 nM; in assay [2], 392 nM; in assay [3], 145 nM; in [4], 13 nM; in assay [5], 3540 nM; in assay [6], 3360 nM. The GI50 was 11 nM in [7], 460 nM in [8] and 7 nM in [9].
In the case of `Cc1ccc(NC(=O)Cc2ccc(Nc3cc(NCCN)ncn3)cc2)cc1C(F)(F)F` [Example 138, 2-{4-[6-(2-amino-ethylamino)-pyrimidin-4-ylamino]-phenyl}-N-(4-methyl-3-trifluoromethyl-phenyl)-acetamide], the GI50 is greater than 10000 nM in assay [10]; 2600 nM in [1]; 79 nM in assay [2]; 711 nM in assay [3]; 17 nM in [4]; greater than 10000 nM in [5]. Moreover, the GI50 in [6] was 377 nM; in assay [11], greater than 10000 nM; in assay [7], 34 nM; in assay [9], 14 nM.
Consider `CCC(=O)NCCNc1cc(Nc2ccc(CC(=O)Nc3ccc(C)c(C(F)(F)F)c3)cc2)ncn1` [Example 139, N-[2-(6-{4-[(4-methyl-3-trifluoromethyl-phenylcarbamoyl)-methyl]-phenylamino}-pyrimidin-4-ylamino)-ethyl]-propanamide], for which the GI50 in assay [10] was greater than 10000 nM; in [1], greater than 10000 nM; in assay [2] it was 34 nM; in [3] it was 8910 nM; in assay [4] it was 319 nM; in [5], greater than 10000 nM. Also, the GI50 in [6] came to 9980 nM; in assay [11], 9800 nM; in assay [7], 1000 nM; in assay [9] it was 432 nM.
`C=CC(=O)NCCNc1cc(Nc2ccc(CC(=O)Nc3ccc(C)c(C(F)(F)F)c3)cc2)ncn1` [Example 140, N-[2-(6-{4-[(4-methyl-3-trifluoromethyl-phenylcarbamoyl)-methyl]-phenylamino}-pyrimidin-4-ylamino)-ethyl]-acrylamide]: the GI50 was greater than 10000 nM in assay [10]; greater than 10000 nM in assay [1]; 170 nM in [2]; 9670 nM in assay [3]; 131 nM in [4]; greater than 10000 nM in [5]. The GI50 in [6] was greater than 10000 nM; in assay [11], 9610 nM; in assay [7], 1110 nM; in assay [9], 377 nM.
As to `Cc1ccc(NC(=O)Nc2ccc(Oc3cc(NCC(N)=O)ncn3)cc2)cc1C(F)(F)F` [Example 142, 2-(6-{4-[3-(4-methyl-3-trifluoromethyl-phenyl)-ureido]-phenoxy}-pyrimidin-4-ylamino)-acetamide], the GI50 was greater than 10000 nM in assay [10]; 736 nM in assay [1]; 8 nM in [2]; 9670 nM in [3]; 7 nM in assay [4]; greater than 10000 nM in [5]. In addition, the GI50 in assay [6] is 1840 nM; in [11] it was greater than 10000 nM; in assay [7], 162 nM; in assay [9] it was 54 nM.
